Test results: US20250002507A1, “7,8-DIHYDRO-5H-1,6-NAPHTHYRIDINE DERIVATIVES AS POSITIVE ALLOSTERIC MODULATORS OF THE MUSCARINIC ACETYLCHOLINE RECEPTOR M4 FOR TREATING NEUROLOGICAL AND PSYCHIATRIC DISORDERS” (Vanderbilt University, priority 2021, published 2025)
Like-named read-outs stand apart in the source and are kept apart here.

Target: T1, Human M4 (Homo sapiens, UniProt P08173)
T1 construct: expressed in transfected cells
T1 sequence (P08173 1-479): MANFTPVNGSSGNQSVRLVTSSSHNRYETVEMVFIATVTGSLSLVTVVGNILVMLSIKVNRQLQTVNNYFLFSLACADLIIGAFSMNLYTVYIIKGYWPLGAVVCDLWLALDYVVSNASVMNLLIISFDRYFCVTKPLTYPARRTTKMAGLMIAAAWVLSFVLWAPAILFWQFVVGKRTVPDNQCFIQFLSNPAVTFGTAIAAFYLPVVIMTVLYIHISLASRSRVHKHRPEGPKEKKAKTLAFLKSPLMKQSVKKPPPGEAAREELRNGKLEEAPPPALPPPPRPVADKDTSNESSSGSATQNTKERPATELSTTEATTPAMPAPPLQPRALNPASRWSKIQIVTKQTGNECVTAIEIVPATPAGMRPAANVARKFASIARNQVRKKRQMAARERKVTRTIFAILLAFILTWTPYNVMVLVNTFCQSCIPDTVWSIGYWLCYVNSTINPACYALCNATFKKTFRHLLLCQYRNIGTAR
Test: mAChR M4 cell-based functional assay (calcium flux, potentiation of EC20 acetylcholine response), hM4-Gqi5 CHO-K1 cells
Settings: for Emax at 30 µM: CHO-K1, % ACh maximum at 30 μM; for EC50: calcium flux, read-out: Human M4 EC50
Protocol: Human and rat M4 cDNAs, along with the chimeric G protein Gqi5, were transfected into Chinese hamster ovary (CHO-K1) cells purchased from the American Type Culture Collection using Lipofectamine2000. hM4-Gqi5 cells were grown in Ham's F-12 medium containing 10% heat-inactivated fetal bovine serum (FBS), 20 mM HEPES, 50 μg/mL G418 sulfate, and 500 μg/mL Hygromycin B. rM4-Gqi5 cells were grown in DMEM containing 10% heat-inactivated FBS, 20 mM HEPES, 400 μg/mL G418 sulfate, and 500 μg/mL Hygromycin B.
For high throughput measurement of agonist-evoked increases in intracellular calcium, CHO-K1 cells stably expressing muscarinic receptors were plated in growth medium lacking G418 and hygromycin at 15,000 cells/20 μL/well in Greiner 384-well black-walled, tissue culture (TC)-treated, clear-bottom plates (VWR). Cells were incubated overnight at 37° C. and 5% CO2. The next day, cells were washed using an ELX 405 (BioTek) with assay buffer; the final volume was then aspirated to 20 μL. Next, 20 μL of a 2.3 μM stock of Fluo-4/acetoxymethyl ester (Invitrogen, Carlsbad, CA), prepared as a 2.3 mM stock in DMSO and mixed in a 1:1 ratio with 10% (w/v) Pluronic F-127 and diluted in assay buffer, was added to the wells and the cell plates were incubated for 50 min at 37° C. and 5% CO2. Dye was removed by washing with the ELX 405 and the final volume was aspirated to 20 μL. Compound master plates were formatted in an 11 point concentration-response curve (CRC) format (1:3 dilutions) in 100% DMSO with a starting concentration of 10 mM using a BRAVO liquid handler (Agilent). Test compound CRCs were then transferred to daughter plates (240 nL) using the Echo acoustic plate reformatter (Labcyte, Sunnyvale, CA) and then diluted into assay buffer (40 μL) to a 2× stock using a Thermo Fisher Combi (Thermo Fisher Scientific, Waltham, MA).
Calcium flux was measured using the Functional Drug Screening System (FDSS) 6000 or 7000 (Hamamatsu Corporation, Tokyo, Japan) as an increase in the fluorescent static ratio. Compounds were applied to cells (20 μL, 2×) using the automated system of the FDSS at 2-4 seconds into the protocol and the data were collected at 1 Hz. At 144 seconds, 10 μL of an EC20 concentration of the muscarinic receptor agonist acetylcholine was added (5×), followed by the addition of 12 μL of an EC80 concentration of acetylcholine at the 230 second time point (5×). Agonist activity was analyzed as a concentration-dependent increase in calcium mobilization upon compound addition. Positive allosteric modulator activity was analyzed as a concentration-dependent increase in the EC20 acetylcholine response. Antagonist activity was analyzed as a concentration-dependent decrease in the EC80 acetylcholine response. Concentration-response curves were generated using a four-parameter logistical equation in XLFit curve fitting software (IDBS, Bridgewater, NJ) for Excel (Microsoft, Redmond, WA) or Prism (GraphPad Software, Inc., San Diego, CA).
Compounds were synthesized as described above. Activity (EC50 and Emax) was determined in the mAChR M4 cell-based functional assay as described above and the data are shown in Tables 2-4. The compound number corresponds to the compound numbers used in Table 1.

[1] = Table 3, Human M4, read-out: Emax (% ACh maximum at 30 μM)
[2] = Table 3, potentiation of EC20 acetylcholine response, CHO-K1 cells
[3] = hM4-Gqi5 CHO-K1 cells, PAM of EC20 acetylcholine
[4] = Table 4, Human M4, read-out: Emax (% ACh maximum at 30 μM)
[5] = Table 4, potentiation of EC20 acetylcholine response, CHO-K1 cells

Emax at 30 µM (human M4, read-out: Emax) | EC50 [3] | Structure (SMILES) | further results
– | – | Cc1c(N2CCc3ncc(-n4cccc4)cc3C2)nn2c(C(F)(F)F)nnc2c1C [Compound 244, 6-(7,8-dimethyl-3-(trifluoromethyl)-[1,2,4]triazolo[4,3-b]pyridazin-6-yl)-3-(1H-pyrrol-1-yl)-5,6,7,8-tetrahydro-1,6-naphthyridine] | Emax at 30 µM [1]: 86%; EC50 [2]: 546 nM
94% | 182 nM | COc1ccc(-c2cnc3c(c2)CN(c2nn4cnnc4c(C)c2C)CC3)cn1 [Compound 43, 6-(7,8-dimethyl-[1,2,4]triazolo[4,3-b]pyridazin-6-yl)-3-(6-methoxy-3-pyridyl)-7,8-dihydro-5H-1,6-naphthyridine] | –
57% | 1040 nM | COc1ccc(Oc2cnc3c(c2)CN(c2nn4cnnc4c(C)c2C)CC3)cc1Cl [Compound 11, 3-(3-chloro-4-methoxy-phenoxy)-6-(7,8-dimethyl-[1,2,4]triazolo[4,3-b]pyridazin-6-yl)-7,8-dihydro-5H-1,6-naphthyridine] | –
– | – | CCc1ccncc1-c1cnc2c(c1)CN(c1nn3cnnc3c(C)c1C)CC2 [Compound 175, 6-(7,8-dimethyl-[1,2,4]triazolo[4,3-b]pyridazin-6-yl)-3-(4-ethylpyridin-3-yl)-5,6,7,8-tetrahydro-1,6-naphthyridine] | Emax at 30 µM [1]: 81%; EC50 [2]: 155 nM
– | – | [2H]C1([2H])Cc2ncc(Nc3cccnc3C)cc2C([2H])([2H])N1c1nn2cnnc2cc1C [Compound 354, 6-(7-methyl-[1,2,4]triazolo[4,3-b]pyridazin-6-yl)-N-(2-methylpyridin-3-yl)-5,6,7,8-tetrahydro-1,6-naphthyridin-5,5,7,7-d4-3-amine] | Emax at 30 µM [4]: 87%; EC50 [5]: 355 nM
64% | 611 nM | Cc1c(N2CCc3ncc(Nc4c(F)cccc4C#N)cc3C2)nn2cnnc2c1C [Compound 46, 2-[[6-(7,8-dimethyl-[1,2,4]triazolo[4,3-b]pyridazin-6-yl)-7,8-dihydro-5H-1,6-naphthyridin-3-yl]amino]-3-fluoro-benzonitrile] | –
62% | 236 nM | Cc1cc2nccn2nc1N1CCc2ncc(-c3c(C)noc3C)cc2C1 [Compound 110, 3,5-dimethyl-4-[6-(7-methylimidazo[1,2-b]pyridazin-6-yl)-7,8-dihydro-5H-1,6-naphthyridin-3-yl]isoxazole] | –
– | – | Cc1cc2nccn2nc1N1CCc2ncc(C(F)(F)F)cc2C1 [Compound 188, 6-(7-methylimidazo[1,2-b]pyridazin-6-yl)-3-(trifluoromethyl)-5,6,7,8-tetrahydro-1,6-naphthyridine] | Emax at 30 µM [1]: 69%; EC50 [2]: 523 nM
82% | 180 nM | Cc1ncc(-c2cnc3c(c2)CN(c2nn4cnnc4c(C)c2C)CC3)s1 [Compound 60, 5-[6-(7,8-dimethyl-[1,2,4]triazolo[4,3-b]pyridazin-6-yl)-7,8-dihydro-5H-1,6-naphthyridin-3-yl]-2-methyl-thiazole] | –
107% | 227 nM | Cc1c(N2CCc3ncc(-c4cnn(CC(C)C)c4)cc3C2)nn2cnnc2c1C [Compound 146, 6-(7,8-dimethyl-[1,2,4]triazolo[4,3-b]pyridazin-6-yl)-3-(1-isobutylpyrazol-4-yl)-7,8-dihydro-5H-1,6-naphthyridine] | –
79% | 94.3 nM | Cc1c(N2CCc3ncc(-c4cncs4)cc3C2)nn2cnnc2c1C [Compound 9, 5-[6-(7,8-dimethyl-[1,2,4]triazolo[4,3-b]pyridazin-6-yl)-7,8-dihydro-5H-1,6-naphthyridin-3-yl]thiazole] | –
71% | 331 nM | Cc1c(N2CCc3ncc(-c4cnn(C5CCCCC5)c4)cc3C2)nn2cnnc2c1C [Compound 20, 3-(1-cyclohexylpyrazol-4-yl)-6-(7,8-dimethyl-[1,2,4]triazolo[4,3-b]pyridazin-6-yl)-7,8-dihydro-5H-1,6-naphthyridine] | –
– | – | Cc1c(N2CCc3ncc(Cc4cccc(F)c4)cc3C2)nn2c(C(F)(F)F)nnc2c1C [Compound 312, 6-(7,8-dimethyl-3-(trifluoromethyl)-[1,2,4]triazolo[4,3-b]pyridazin-6-yl)-3-(3-fluorobenzyl)-5,6,7,8-tetrahydro-1,6-naphthyridine] | Emax at 30 µM [4]: 60%; EC50 [5]: 1800 nM
– | – | Cc1c(N2CCc3ncc(-c4ccc(N(C)C)nc4)cc3C2)nn2c(C(F)(F)F)nnc2c1C [Compound 241, 5-(6-(7,8-dimethyl-3-(trifluoromethyl)-[1,2,4]triazolo[4,3-b]pyridazin-6-yl)-5,6,7,8-tetrahydro-1,6-naphthyridin-3-yl)-N,N-dimethylpyridin-2-amine] | Emax at 30 µM [1]: 61%; EC50 [2]: 1230 nM
76% | 1150 nM | Cc1c(N2CCc3ncc(NC(=O)C4CC4)cc3C2)nn2cnnc2c1C [Compound 14, N-[6-(7,8-dimethyl-[1,2,4]triazolo[4,3-b]pyridazin-6-yl)-7,8-dihydro-5H-1,6-naphthyridin-3-yl]cyclopropanecarboxamide] | –
– | – | COc1ccc(-c2cnc3c(c2)CN(c2nn4cnnc4cc2C)CC3)cn1 [Compound 202, 3-(6-methoxypyridin-3-yl)-6-(7-methyl-[1,2,4]triazolo[4,3-b]pyridazin-6-yl)-5,6,7,8-tetrahydro-1,6-naphthyridine] | Emax at 30 µM [1]: 95%; EC50 [2]: 227 nM
74% | 304 nM | Cc1cc2nccn2nc1N1CCc2ncc(-c3cnn(C4CC4)c3)cc2C1 [Compound 145, 3-(1-cyclopropylpyrazol-4-yl)-6-(7-methylimidazo[1,2-b]pyridazin-6-yl)-7,8-dihydro-5H-1,6-naphthyridine] | –
– | – | Cc1c(N2CCc3ncc(N4CCCCC4)cc3C2)nn2c(C(F)(F)F)nnc2c1C [Compound 281, 6-(7,8-dimethyl-3-(trifluoromethyl)-[1,2,4]triazolo[4,3-b]pyridazin-6-yl)-3-(piperidin-1-yl)-5,6,7,8-tetrahydro-1,6-naphthyridine] | Emax at 30 µM [1]: 76%; EC50 [2]: 738 nM
86% | 325 nM | Cc1cc2nncn2nc1N1CCc2ncc(-c3c(C)noc3C)cc2C1 [Compound 105, 3,5-dimethyl-4-[6-(7-methyl-[1,2,4]triazolo[4,3-b]pyridazin-6-yl)-7,8-dihydro-5H-1,6-naphthyridin-3-yl]isoxazole] | –
– | – | Cc1c(N2CCc3ncc(N4CCOC[C@@H]4C)cc3C2)nn2c(C(F)(F)F)nnc2c1C [Compound 315, (S)-4-(6-(7,8-dimethyl-3-(trifluoromethyl)-[1,2,4]triazolo[4,3-b]pyridazin-6-yl)-5,6,7,8-tetrahydro-1,6-naphthyridin-3-yl)-3-methylmorpholine] | Emax at 30 µM [4]: 85%; EC50 [5]: 1900 nM
89% | 138 nM | Cc1cc2nncn2nc1N1CCc2ncc(-c3cnn(C4CC4)c3)cc2C1 [Compound 143, 3-(1-cyclopropylpyrazol-4-yl)-6-(7-methyl-[1,2,4]triazolo[4,3-b]pyridazin-6-yl)-7,8-dihydro-5H-1,6-naphthyridine] | –
